Active and inactive are the calls of the source. The calls are words filed in the database; no cut-off is given here.
What was measured:
[1] = target: T1, Serine/threonine-protein kinase LMTK3 (Homo sapiens, UniProt Q96Q04); assay: Inhibition of LMTK3 (unknown origin)
T1 sequence (Q96Q04 whole entry): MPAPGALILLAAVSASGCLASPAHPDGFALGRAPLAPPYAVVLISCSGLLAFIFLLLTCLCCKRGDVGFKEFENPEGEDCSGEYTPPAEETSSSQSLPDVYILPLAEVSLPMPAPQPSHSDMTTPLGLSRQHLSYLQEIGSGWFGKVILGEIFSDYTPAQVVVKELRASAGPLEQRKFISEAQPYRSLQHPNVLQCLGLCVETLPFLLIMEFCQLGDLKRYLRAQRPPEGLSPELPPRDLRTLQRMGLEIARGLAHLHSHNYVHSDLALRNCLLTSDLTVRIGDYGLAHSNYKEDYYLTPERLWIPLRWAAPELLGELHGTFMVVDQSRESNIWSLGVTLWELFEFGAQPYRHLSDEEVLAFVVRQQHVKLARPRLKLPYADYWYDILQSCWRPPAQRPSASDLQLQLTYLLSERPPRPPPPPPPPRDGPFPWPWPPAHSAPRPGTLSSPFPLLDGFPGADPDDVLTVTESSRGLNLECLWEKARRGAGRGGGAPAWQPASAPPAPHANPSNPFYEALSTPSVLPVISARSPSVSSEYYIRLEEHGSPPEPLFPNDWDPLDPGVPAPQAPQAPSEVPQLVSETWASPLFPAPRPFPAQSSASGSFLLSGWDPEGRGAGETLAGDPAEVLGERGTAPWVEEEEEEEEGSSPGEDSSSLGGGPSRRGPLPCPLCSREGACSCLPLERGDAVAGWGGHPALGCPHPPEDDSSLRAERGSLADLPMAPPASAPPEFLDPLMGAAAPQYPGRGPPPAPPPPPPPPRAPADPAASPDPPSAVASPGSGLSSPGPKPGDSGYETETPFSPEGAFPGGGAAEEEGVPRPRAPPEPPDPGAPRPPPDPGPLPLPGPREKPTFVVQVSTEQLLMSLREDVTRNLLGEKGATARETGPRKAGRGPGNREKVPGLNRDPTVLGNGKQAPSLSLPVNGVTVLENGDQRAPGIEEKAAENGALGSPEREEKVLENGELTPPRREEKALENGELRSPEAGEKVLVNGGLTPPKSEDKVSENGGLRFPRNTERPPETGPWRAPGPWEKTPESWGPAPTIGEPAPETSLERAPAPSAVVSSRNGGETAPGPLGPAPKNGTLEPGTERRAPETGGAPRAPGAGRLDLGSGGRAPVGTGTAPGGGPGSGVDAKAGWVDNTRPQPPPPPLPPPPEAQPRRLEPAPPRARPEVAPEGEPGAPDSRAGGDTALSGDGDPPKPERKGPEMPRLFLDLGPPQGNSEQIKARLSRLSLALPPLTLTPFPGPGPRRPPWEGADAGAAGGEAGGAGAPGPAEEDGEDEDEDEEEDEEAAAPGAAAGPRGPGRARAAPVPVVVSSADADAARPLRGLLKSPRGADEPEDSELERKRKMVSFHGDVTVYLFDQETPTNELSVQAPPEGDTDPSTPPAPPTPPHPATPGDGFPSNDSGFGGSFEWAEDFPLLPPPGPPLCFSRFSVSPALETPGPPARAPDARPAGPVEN

[2] = target: T2, Muscle, skeletal receptor tyrosine-protein kinase (Homo sapiens) (UniProt O15146); assay: Inhibition of MUSK (unknown origin) at 100 nM relative to control
T2 sequence (whole entry): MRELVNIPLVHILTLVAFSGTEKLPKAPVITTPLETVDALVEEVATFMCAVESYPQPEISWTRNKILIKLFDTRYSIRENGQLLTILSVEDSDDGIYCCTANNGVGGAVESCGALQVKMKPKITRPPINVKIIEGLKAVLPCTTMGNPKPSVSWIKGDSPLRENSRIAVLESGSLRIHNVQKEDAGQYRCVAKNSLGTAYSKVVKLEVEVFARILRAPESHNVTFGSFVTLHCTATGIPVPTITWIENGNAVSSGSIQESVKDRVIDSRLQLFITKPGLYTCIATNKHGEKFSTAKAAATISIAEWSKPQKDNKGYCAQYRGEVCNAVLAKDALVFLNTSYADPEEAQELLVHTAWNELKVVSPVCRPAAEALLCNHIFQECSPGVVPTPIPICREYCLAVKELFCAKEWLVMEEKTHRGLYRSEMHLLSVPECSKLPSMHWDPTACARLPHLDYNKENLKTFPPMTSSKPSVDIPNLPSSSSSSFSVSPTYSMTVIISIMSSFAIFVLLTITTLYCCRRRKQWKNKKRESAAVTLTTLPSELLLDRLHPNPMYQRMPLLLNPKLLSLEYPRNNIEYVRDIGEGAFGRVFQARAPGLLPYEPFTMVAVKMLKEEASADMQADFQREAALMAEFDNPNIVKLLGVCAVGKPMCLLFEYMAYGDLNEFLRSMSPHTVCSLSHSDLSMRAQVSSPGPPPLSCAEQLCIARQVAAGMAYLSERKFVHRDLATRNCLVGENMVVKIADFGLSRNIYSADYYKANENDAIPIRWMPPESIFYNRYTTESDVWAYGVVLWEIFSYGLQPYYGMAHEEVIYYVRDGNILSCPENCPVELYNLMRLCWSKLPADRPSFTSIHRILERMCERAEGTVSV

[3] = target: BDNF/NT-3 growth factors receptor (Homo sapiens) (UniProt Q16620); conditions: 1.52 nM
Description: Inhibition of TRKB (unknown origin) at 1.52 nM relative to control

[4] = target: Insulin receptor (Homo sapiens) (UniProt P06213); assay: Inhibition of INSR (unknown origin) at 10 uM relative to control
[5] = target: Insulin-like growth factor 1 receptor (Homo sapiens) (UniProt P08069); assay: Inhibition of IGF1R (unknown origin) at 10 uM relative to control
[6] = target: BDNF/NT-3 growth factors receptor (Homo sapiens) (UniProt Q16620); assay: Inhibition of TRKB (unknown origin) at 10 uM relative to control
[7] = target: T2, Muscle, skeletal receptor tyrosine-protein kinase (Homo sapiens); assay: Inhibition of MUSK (unknown origin) at 10 uM relative to control
MCF7 [8] = assay: Antiproliferative activity against human MCF7 cells at 5 uM incubated for 6 days by MTT assay relative to control; assay type: functional
T47D [9] = assay: Antiproliferative activity against human T47D cells at 5 uM incubated for 6 days by MTT assay relative to control; assay type: functional
MCF7 [10] = assay: Antiproliferative activity against human MCF7 cells at 10 uM incubated for 6 days by MTT assay relative to control; assay type: functional
T47D [11] = assay: Antiproliferative activity against human T47D cells at 10 uM incubated for 6 days by MTT assay relative to control; assay type: functional
[12] = target: T3, Serine/threonine-protein kinase LMTK3 (Homo sapiens) (UniProt Q96Q04); assay: Binding affinity to full length LMTK3 (unknown origin) assessed as change in melting temperature at 10 uM by CETSA-based Western blot analysis
T3 sequence (whole entry): T1 sequence (Q96Q04 whole entry)

[13] = target: T3, Serine/threonine-protein kinase LMTK3 (Homo sapiens); assay: Binding affinity to hyper glycosylated LMTK3 (unknown origin) assessed as change in melting temperature at 10 uM by CETSA-based Western blot analysis
[14] = target: T3, Serine/threonine-protein kinase LMTK3 (Homo sapiens); assay: Binding affinity to full length LMTK3 (unknown origin) assessed as thermal stabilization of protein at 54 degC incubated for 3 mins followed by 3 min incubated at room temperature by CETSA-based Western blot analysis
[15] = target: T3, Serine/threonine-protein kinase LMTK3 (Homo sapiens); assay: Binding affinity to full length LMTK3 (unknown origin) assessed as thermal stabilization of protein at 0.3 to 1 uM at 54 degC incubated for 3 mins followed by 3 min incubated at room temperature by CETSA-based Western blot analysis
MCF7 [16] = assay: Antiproliferative activity against human MCF7 cells at 20 uM incubated for 6 days by MTT assay relative to control; assay type: functional
T47D [17] = assay: Antiproliferative activity against human T47D cells at 20 uM incubated for 6 days by MTT assay relative to control; assay type: functional

Chain of Insulin receptor (Homo sapiens) (P06213 28-758 limits assumed): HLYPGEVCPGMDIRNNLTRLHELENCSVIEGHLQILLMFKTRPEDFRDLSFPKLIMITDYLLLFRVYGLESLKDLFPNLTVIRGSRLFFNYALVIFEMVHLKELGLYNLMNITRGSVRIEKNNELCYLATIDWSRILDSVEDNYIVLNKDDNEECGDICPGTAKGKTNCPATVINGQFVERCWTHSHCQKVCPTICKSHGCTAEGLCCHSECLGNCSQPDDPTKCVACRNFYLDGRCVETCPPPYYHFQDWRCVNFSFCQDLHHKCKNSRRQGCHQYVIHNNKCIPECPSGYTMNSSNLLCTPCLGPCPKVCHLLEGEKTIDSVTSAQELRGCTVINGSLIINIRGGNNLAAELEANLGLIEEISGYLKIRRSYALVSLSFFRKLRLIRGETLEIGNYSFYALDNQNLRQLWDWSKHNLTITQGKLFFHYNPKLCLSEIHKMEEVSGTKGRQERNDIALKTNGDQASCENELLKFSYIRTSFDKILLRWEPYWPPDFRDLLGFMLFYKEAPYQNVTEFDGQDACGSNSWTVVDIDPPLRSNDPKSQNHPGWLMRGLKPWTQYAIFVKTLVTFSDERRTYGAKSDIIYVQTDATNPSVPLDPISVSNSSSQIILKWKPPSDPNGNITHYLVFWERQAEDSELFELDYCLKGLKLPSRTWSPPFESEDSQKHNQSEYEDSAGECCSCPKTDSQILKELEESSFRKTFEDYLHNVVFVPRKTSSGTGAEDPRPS
Chain of Insulin receptor (Homo sapiens) (P06213 763-1382 limits assumed): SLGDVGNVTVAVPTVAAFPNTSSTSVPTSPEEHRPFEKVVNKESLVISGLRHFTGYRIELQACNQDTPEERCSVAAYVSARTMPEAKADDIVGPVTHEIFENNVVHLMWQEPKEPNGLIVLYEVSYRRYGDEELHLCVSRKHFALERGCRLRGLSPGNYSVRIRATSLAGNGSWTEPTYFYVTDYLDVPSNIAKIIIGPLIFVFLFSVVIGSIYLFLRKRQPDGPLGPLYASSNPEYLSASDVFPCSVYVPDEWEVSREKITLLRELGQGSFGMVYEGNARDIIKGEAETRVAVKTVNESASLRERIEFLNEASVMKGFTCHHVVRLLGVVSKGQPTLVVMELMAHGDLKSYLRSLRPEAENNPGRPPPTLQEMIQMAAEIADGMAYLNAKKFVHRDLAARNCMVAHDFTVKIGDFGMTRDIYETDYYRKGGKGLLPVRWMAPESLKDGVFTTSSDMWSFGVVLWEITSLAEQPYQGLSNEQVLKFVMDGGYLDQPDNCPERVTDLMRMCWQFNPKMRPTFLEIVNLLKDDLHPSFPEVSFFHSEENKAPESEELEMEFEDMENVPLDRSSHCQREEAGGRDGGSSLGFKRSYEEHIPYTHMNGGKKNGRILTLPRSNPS
Chain of BDNF/NT-3 growth factors receptor (Homo sapiens) (Q16620 32-822 limits assumed): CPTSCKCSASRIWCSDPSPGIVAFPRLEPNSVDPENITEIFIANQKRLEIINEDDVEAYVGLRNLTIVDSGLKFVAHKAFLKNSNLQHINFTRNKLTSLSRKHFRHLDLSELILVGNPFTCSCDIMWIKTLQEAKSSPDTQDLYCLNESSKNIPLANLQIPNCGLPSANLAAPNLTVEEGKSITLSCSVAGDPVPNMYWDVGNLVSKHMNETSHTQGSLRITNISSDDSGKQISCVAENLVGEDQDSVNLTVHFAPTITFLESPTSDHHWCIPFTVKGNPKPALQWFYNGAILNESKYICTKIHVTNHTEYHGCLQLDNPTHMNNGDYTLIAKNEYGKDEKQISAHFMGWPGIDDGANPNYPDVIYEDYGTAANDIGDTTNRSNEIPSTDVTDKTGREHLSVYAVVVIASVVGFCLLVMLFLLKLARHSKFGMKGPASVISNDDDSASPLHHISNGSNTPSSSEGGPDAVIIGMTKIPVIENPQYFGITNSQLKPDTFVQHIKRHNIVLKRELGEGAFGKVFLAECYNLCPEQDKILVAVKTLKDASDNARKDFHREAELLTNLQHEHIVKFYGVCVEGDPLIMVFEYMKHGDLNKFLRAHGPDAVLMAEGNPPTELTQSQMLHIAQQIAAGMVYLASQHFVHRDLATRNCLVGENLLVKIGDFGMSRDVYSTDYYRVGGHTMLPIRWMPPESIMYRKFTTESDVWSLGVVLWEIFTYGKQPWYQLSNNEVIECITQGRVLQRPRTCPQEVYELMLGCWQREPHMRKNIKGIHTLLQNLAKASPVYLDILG
Chain of Insulin-like growth factor 1 receptor (Homo sapiens) (P08069 31-736 limits assumed): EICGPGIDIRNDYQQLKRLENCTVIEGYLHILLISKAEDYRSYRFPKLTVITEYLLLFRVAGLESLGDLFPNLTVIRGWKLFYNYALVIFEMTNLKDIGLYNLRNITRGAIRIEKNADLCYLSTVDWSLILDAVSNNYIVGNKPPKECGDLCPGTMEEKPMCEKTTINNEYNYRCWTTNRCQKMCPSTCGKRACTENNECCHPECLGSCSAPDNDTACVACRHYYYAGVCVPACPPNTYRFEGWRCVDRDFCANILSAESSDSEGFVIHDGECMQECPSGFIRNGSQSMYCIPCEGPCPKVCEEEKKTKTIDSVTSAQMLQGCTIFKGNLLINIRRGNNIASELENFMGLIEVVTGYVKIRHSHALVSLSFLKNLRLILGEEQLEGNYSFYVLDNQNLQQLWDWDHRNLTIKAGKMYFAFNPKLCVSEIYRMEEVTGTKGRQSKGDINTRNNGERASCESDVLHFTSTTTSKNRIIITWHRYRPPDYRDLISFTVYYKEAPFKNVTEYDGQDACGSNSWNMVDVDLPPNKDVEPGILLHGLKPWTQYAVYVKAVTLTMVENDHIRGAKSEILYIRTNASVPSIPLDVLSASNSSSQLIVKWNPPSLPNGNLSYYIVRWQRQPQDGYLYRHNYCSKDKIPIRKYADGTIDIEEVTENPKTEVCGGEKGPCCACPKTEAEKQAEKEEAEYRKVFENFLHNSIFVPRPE
Chain of Insulin-like growth factor 1 receptor (Homo sapiens) (P08069 741-1367 limits assumed): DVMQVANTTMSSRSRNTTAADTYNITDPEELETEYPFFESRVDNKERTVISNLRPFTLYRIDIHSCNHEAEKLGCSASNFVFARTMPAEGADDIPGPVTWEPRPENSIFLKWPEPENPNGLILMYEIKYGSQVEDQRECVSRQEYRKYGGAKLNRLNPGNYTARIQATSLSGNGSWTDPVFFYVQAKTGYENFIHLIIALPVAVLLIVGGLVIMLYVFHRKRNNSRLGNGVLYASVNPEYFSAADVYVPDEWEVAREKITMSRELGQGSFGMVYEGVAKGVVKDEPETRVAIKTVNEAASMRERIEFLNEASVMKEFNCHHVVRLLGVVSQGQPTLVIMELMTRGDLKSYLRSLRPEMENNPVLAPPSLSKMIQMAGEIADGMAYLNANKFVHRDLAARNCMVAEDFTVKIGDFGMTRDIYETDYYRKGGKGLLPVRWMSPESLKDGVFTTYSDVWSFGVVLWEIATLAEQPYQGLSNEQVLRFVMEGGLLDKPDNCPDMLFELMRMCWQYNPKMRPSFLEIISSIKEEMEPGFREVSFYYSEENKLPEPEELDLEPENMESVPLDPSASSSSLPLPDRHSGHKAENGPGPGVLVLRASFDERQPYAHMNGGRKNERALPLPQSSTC

IC50 [1] [nM]	inhibition [2] [%]	inhibition [3] [%]	inhibition [4] [%]	inhibition [5] [%]	inhibition [6] [%]	inhibition [7] [%]	Activity [12]	Activity [13]	Activity [14]	Activity [15]	SMILES	Activity (MCF7 [8]) [%]	Activity (T47D [9]) [%]	Activity (MCF7 [10]) [%]	Activity (T47D [11]) [%]	Activity (MCF7 [16]) [%]	Activity (T47D [17]) [%]
4650	54.1	> 95	–	–	–	–	–	–	–	–	CN1CCN(c2ccc(C(=O)Nc3n[nH]c4ccc(Cc5cc(F)cc(F)c5)cc34)c(NC3CCOCC3)c2)CC1 [ENTRECTINIB]	–	–	–	–	–	–
1610	–	–	18.4	11.4	10.6	103	Active	Active	Active	Active	N=C1NC[C@H](CC2CCCCC2)N1C[C@H](Cc1ccccc1)NS(=O)(=O)c1ccccc1	60	60	100	100	–	–
3160	75.1	> 95	–	–	–	–	–	–	–	–	C[C@@]1(C(=O)Nc2ccc(F)nc2)CCCN1c1nc(Nc2cc(C3CC3)n[nH]2)c2cccn2n1 [BMS-754807]	–	–	–	–	–	–
318	–	–	5.7	16.1	25.3	79.8	–	–	–	–	Cc1ccc(S(=O)(=O)N[C@@H](Cc2ccc(O)cc2)CN2C(=N)NC[C@@H]2CC2CCCCC2)cc1	–	–	–	–	50	50
654	–	–	2.3	8.3	2	27.3	–	–	–	–	CC(C)C[C@H]1CNC(=N)N1C[C@H](Cc1ccccc1)NS(=O)(=O)c1ccccc1	–	–	–	–	100	100
226	–	–	0.1	16.1	16	56.8	–	–	inactive	–	N=C1NC[C@H](CC2CCCCC2)N1C[C@H](Cc1ccc(O)cc1)NS(=O)(=O)c1ccccc1Cl	–	–	–	–	–	–
308	–	–	3.9	7.8	0.8	22.2	–	–	–	–	Cc1ccc(S(=O)(=O)N[C@@H](Cc2ccc(O)cc2)CN2C(=N)NC[C@@H]2CC(C)C)cc1	–	–	–	–	–	–
210	–	–	7.3	15.9	0.1	19.8	–	–	–	–	CC(C)C[C@H]1CNC(=N)N1C[C@H](Cc1ccc(O)cc1)NS(=O)(=O)c1ccccc1Cl	–	–	–	–	–	–

Reference: ChEMBL document CHEMBL4619718, “Discovery of cyclic guanidine-linked sulfonamides as inhibitors of LMTK3 kinase” (Bioorg Med Chem Lett, 2020)
